Experimental data as given in ChEMBL document CHEMBL1201862, “PubChem BioAssay data set” (2004).
Activity calls are given as the source filed them.

Legend:
[1] = biological target: T1, Neuropeptide Y receptor type 1 (Homo sapiens, UniProt P25929); test: Fluorescence-based counterscreen for agonists of NPY-Y2: cell-based high-throughput dose response assay for agonists of NPY-Y1.; type: functional
T1 sequence (P25929 whole entry): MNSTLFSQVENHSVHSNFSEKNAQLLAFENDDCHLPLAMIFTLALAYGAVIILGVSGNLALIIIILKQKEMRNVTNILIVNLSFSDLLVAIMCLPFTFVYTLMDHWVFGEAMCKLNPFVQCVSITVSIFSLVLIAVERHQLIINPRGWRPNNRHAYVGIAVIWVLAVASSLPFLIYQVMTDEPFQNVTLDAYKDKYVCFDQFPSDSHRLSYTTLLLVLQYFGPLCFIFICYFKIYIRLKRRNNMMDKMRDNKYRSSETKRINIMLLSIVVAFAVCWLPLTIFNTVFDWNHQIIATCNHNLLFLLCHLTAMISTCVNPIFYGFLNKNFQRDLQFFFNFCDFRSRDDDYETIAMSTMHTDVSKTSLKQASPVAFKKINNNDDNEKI

[2] = biological target: T2, Neuropeptide Y receptor type 2 (Homo sapiens, UniProt P49146); test: Fluorescence-based cell-based high-throughput dose response assay for agonists of NPY-Y2. [Related pubchem assays: 1703 (Screening assay (CNGC inhibitors).), 1359 (Screening assay (NPY-Y2 potentiators or agonists).), 1304 (Screening assay (NPY-Y1 potentiators or agonists).), 1710 (Screening assay (NPY-Y2 agonists).), 1791 (Summary AID.)]; type: functional
T2 sequence (P49146 whole entry): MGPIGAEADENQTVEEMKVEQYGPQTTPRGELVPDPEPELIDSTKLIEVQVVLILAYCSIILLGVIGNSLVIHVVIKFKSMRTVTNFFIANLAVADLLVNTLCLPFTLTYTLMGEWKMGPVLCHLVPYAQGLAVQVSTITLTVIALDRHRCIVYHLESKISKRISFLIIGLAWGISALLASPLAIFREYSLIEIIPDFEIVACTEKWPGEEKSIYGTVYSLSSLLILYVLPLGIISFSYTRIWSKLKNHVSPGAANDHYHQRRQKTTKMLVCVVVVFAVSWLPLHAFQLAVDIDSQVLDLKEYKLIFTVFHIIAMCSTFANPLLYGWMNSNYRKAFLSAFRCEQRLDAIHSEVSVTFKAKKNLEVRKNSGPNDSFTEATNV

[3] = system: HEK293; test: Fluorescence-based counterscreen for potentiators or agonists of NPY-Y2: cell-based high-throughput dose response assay to identify inhibitors of cyclic nucleotide gated ion channel (CNGC) activity. In this assay, the parental HEK293 cell line transfected with a cyclic-nucleotide gated ion channel (CNGC)-based cAMP sensor is used to measure inhibition of isoproterenol-induced CNGC activity by test compound.; type: functional; conditions: Homo sapiens;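 note: stimulus is 1 µM isoproterenol at EC100 plus PDE inhibitor Ro 20-1724 at 25 µM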
[4] = biological target: Heat shock protein HSP 90-alpha (Homo sapiens, UniProt P07900); test: Luminescence-based dose response biochemical high throughput screening assay for inhibitors of the Heat Shock Protein 90 (HSP90). [Related pubchem assays: 1831 (Summary AID.), 1846 (Confirmation screen.), 1789 (Primary screen.)]
[5] = biological target: Glyceraldehyde-3-phosphate dehydrogenase (Homo sapiens, UniProt P04406)
[6] = biological target: Luciferin 4-monooxygenase (Photinus pyralis, UniProt P08659); test: Counter Screen for Luciferase-based Assay Positives. [Related pubchem assays: 620, 618, 411 ]
[7] = Luminescence-based counterscreen assay for KLF5 inhibitors: dose response cell-based high throughput screening assay to identify cytotoxic compounds using the IEC-6 intestinal epithelial cell line. [Related pubchem assays: 1700 (Primary screen.), 1834 (Confirmation screen.), 1858 (Summary AID.), 1905 (Counterscreen.)]; type: functional
[8] = biological target: T3, Microphthalmia-associated transcription factor (Homo sapiens, UniProt O75030); test: reducers of TRPM1 reporter luminescence, concentration series – cell-based, SK-MEL-5, cherry-picked, set 3, MITF inhibitor project, dose response (AID 493073); type: functional;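 note: SK-MEL-5 melanoma cells with luciferase driven by the MITF target TRPM1 promoter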
T3 sequence (O75030 whole entry): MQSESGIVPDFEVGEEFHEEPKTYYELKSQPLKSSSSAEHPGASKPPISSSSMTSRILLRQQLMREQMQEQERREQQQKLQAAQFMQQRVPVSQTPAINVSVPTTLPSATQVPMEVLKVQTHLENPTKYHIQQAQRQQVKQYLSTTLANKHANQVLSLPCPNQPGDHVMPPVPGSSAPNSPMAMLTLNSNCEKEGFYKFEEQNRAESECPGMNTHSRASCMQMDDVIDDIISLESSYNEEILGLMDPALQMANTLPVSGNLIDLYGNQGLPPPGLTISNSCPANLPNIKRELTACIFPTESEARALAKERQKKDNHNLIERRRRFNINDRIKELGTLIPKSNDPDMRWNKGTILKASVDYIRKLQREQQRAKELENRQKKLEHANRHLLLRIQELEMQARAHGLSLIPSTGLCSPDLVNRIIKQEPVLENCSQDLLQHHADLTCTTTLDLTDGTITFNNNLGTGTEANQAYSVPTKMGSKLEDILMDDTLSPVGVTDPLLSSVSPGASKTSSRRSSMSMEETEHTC

[9] = biological target: T4, Leucine aminopeptidase (Plasmodium falciparum 3D7, UniProt Q8IL11); test: P. falciparum M17LAP inhibitors, primary screen, biochemical, fluorogenic H-Leu-NHMec substrate, 1536-well (AID 1619); type: functional
T4 sequence (Q8IL11 whole entry): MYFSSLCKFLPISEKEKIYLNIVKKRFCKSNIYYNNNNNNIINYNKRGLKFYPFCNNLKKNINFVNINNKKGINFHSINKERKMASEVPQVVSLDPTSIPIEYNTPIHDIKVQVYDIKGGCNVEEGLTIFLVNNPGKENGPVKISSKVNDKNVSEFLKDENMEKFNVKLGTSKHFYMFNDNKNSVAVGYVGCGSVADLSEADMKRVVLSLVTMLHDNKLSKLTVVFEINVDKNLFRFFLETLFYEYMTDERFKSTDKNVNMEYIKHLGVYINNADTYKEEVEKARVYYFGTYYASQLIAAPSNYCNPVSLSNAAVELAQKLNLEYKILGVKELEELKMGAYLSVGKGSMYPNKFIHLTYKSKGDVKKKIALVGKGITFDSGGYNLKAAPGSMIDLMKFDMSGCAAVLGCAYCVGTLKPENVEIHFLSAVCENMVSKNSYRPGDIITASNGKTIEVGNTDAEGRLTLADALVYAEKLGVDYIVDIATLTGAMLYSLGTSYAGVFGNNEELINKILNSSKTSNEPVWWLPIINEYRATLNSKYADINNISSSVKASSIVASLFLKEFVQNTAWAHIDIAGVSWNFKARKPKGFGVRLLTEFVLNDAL

[10] = alpha-synuclein stem-loop luciferase translation blockers – H4 neuroglioma cells, luminescence, confirmation (AID 1988); type: functional, cell-based
[11] = Luminescence Cell-Based Dose Response HTS to Identify Inhibitors of 5'UTR Stem-Loop Driven Prion Protein mRNA Translation in H4 Neuroglioblastoma Cells. [Related pubchem assays: 1827 (Project Summary), 1813 (Primary HTS)]; type: functional
[12] = luciferase reporter signal suppression in cells – H4 neuroglioma cells, luminescence, dose response (AID 1990); type: functional, cell-based
[13] = system: HT-1080; test: HT1080 cell viability loss – fluorescence readout (AID 620); type: functional, cell-based; conditions: Homo sapiens
[14] = system: Jurkat; test: blockers of NF-kB activation in T cells – Jurkat, luciferase reporter, luminescence, B- and T-cell, dose response (AID 489004); type: functional, cell-based; conditions: Homo sapiens;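 note: NF-kB luciferase reporter Jurkat cells stimulated with PMA plus ionomycin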
[15] = HEK-293T viability loss, compound-treated – cell-based, uHTS hits, cytotoxicity control for B/T-cell NF-kB inhibitor project, dose response (AID 489019); type: functional;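 note: IC50 reflects cytotoxicity as loss of cell viability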
[16] = biological target: T5, Heat shock factor protein 1 (Mus musculus, UniProt P38532); test: decrease of HSF1-responsive luciferase luminescence – cell-based, NIH3T3, dose retest, confirmation (AID 2382); type: functional;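 note: NIH3T3 fibroblasts with HSF1-driven luciferase reporter stressed by proteasome inhibitor MG132; luminescence from HSF1-driven luciferase expression after 8 hours of MG132 stress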
T5 sequence (P38532 whole entry): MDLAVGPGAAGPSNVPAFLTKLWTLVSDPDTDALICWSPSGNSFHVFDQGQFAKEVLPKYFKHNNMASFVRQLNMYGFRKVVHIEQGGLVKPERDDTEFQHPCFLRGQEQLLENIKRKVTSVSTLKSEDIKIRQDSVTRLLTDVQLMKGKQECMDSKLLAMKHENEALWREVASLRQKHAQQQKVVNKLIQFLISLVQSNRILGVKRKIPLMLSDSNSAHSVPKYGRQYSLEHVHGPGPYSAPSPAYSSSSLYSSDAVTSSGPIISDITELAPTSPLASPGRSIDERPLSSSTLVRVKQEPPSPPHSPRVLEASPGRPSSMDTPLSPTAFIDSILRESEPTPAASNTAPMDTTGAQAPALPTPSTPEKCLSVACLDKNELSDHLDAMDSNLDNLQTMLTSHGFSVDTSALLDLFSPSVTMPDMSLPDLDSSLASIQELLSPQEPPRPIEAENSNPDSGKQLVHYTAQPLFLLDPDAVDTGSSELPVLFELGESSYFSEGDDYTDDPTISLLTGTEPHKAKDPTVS

Chain of Glyceraldehyde-3-phosphate dehydrogenase (P04406 whole entry): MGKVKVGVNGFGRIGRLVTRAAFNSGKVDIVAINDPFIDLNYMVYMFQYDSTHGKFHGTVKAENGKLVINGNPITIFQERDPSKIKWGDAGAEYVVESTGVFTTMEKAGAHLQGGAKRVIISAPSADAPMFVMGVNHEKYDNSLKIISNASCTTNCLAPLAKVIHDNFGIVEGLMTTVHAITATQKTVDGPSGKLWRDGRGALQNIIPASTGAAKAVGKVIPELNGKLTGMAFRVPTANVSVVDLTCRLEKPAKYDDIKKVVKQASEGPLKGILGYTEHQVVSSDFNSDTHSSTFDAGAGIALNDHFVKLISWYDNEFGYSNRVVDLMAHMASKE
Chain of Luciferin 4-monooxygenase (P08659 whole entry): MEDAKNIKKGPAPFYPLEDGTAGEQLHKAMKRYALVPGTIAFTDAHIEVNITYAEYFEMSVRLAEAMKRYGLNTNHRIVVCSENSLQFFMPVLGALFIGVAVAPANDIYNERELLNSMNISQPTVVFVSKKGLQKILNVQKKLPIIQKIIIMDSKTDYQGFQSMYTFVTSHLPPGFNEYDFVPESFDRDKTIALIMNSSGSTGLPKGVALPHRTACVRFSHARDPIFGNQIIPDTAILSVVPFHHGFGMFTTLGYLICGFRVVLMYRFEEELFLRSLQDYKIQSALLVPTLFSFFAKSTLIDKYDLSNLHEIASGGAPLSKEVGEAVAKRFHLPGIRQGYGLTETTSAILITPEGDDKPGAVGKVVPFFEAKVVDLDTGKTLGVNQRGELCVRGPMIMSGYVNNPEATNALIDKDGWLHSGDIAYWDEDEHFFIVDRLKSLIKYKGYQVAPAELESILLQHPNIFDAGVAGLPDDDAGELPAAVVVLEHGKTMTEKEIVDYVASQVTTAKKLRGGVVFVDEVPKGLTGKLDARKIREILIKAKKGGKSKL

| SMILES | EC50 [1] | EC50 [2] | EC50 [3] | IC50 [4] | IC50 [5] | EC50 [6] | IC50 [7] | AC50 [8] | IC50 [9] | EC50 [10] | EC50 [11] | EC50 [12] | EC50 [13] | IC50 [14] | IC50 [15] | EC50 [16] |
| --- | --- | --- | --- | --- | --- | --- | --- | --- | --- | --- | --- | --- | --- | --- | --- | --- |
| COC(=O)/C(=C/c1cn(C(C)=O)c2ccccc12)[N+](=O)[O-] | > 35.4 µM (not active) | > 35.4 µM (not active) | 12.3 µM (not active) | – | – | – | – | – | – | – | – | – | – | – | – | – |
| O=C(O)CSCC(=O)Nc1ccc(C2CCCCC2)cc1 | – | – | – | > 60 µM (not active) | > 100 µM (not active) | 3.61 µM (active) | > 39.8 µM (not active) | 2.12 µM (active) | 12.6 µM (active) | 2.2 µM (active) | 0.395 µM (active) | 0.101 µM (active) | > 50 µM (not active) | 0.26 µM (active) | > 80 µM (inactive) | 0.415 µM (active) |
